From patent US12084521B2, “TLR9 inhibitors to suppress inflammatory response to pathogens” (University Of Maryland, Baltimore, priority 2018, dated 2024)

Tested on: TLR9-induced lethality
Assay: Survival of D-Gal pretreated mice after ODN 1668
Type: in vivo, C57Bl/6J mice
Method: Systemic cytokine levels were measured in plasma samples obtained 1, 3, and 5 hours after intraperitoneal (i.p.) administration of 7.86 nmol (50 μg) of ODN 1668 or 67 nmol of Pam3C per mouse, using ELISA kits from Biolegend™ Inc. CPDP were dissolved in PBS and administered i.p. at the dose of 200 nmol per mouse 1 hour before administration of a TLR agonist. For survival experiments, mice were sensitized to TLR9 agonists by i.p. injection of 20 mg of D-Gal 30 minutes before administration of peptides or PBS. ODN 1668 was used at the doses of 3.93 or 7.86 nmol/mouse (25 or 50 μg/mouse) 1.5 hours after D-Gal. Animal survival was monitored for 50 hours. All agents were administered i.p. in 500 μL volume of PBS. Animals had free access to food and water during the observation period. All animal experiments were conducted in accordance with the national guidelines for the care and use of laboratory animals under a protocol that was approved by the UMB IACUC.
With the exception for LPS, administration of a purified TLR agonist is not lethal to mice. Mice, however, can be sensitized to TLR agonists by pretreatment with D-galactosamine (D-Gal). Survival of C57Bl/6J mice pretreated with D-galactosamine and challenged with different doses of ODN 1668 was tested. Mice were first administered with D-Gal intraperitoneally at the dose of 20 mg/mouse. Thirty minutes later mice were mock-treated with PBS or treated with a CPDP at the dose 200 nmol/mouse. ODN 1668 was administered 1 hour after peptide treatment at the dose of 3.93 or 7.86 nmol/mouse.

[1] = higher ODN1668 dose 50 μg/mouse, peptide 200 nmol/mouse i.p.

## ALRLCLEERD [Peptide 9R34-ΔN]
D-Gal pretreated mice
  protection against ODN-induced lethality (overall): protects mice from TLR9-induced lethality
ODN 1668 lower dose 3.93 nmol/mouse, peptide 200 nmol/mouse i.p.
  protection of D-Gal pretreated mice (survival): full protection
[1]
  mice rescued: more than 50%
  protection of D-Gal pretreated mice (survival): less protective
